Test [1] addresses T1, cyclodextrinase (Lysinibacillus sphaericus, UniProt Q08341).
T1 construct: is cultured in a medium to yield and accumulate said cyclodextrinase, and this enzyme is collected from the culture; made in house; host or cells: Bacillus sphaericus E-244 (FERM BP-2458), the natural wild-type producer strain; not recombinant
T1 sequence (Q08341 1-591): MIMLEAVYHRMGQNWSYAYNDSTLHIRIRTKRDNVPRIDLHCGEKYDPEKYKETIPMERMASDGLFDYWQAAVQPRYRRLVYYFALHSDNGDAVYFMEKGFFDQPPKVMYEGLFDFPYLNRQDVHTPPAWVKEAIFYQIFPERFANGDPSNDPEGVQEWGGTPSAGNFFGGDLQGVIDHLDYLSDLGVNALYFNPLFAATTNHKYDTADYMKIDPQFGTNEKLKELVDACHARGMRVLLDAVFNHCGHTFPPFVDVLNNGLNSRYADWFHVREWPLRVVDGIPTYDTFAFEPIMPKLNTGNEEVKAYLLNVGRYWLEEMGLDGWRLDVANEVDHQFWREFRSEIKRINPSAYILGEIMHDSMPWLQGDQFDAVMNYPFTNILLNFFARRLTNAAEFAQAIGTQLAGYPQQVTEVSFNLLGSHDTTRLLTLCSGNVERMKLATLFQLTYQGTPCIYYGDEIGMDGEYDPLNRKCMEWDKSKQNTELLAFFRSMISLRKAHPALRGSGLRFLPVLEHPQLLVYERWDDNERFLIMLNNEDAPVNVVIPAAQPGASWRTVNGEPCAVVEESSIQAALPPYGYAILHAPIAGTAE
Briefly: Substrate specificity of the present cyclodextrinase (relative hydrolysis rate). The test is classed as biochemical, Bacillus sphaericus. The method, then:
(§1) When the amount of the enzyme was small, the reducing power of the enzyme was determined according to Nelson-Somogyi's method, with glucose as standard.

Test [2] deals with T1, cyclodextrinase. Briefly: Reaction rate parameters of the present enzyme for cyclodextrins and maltooligosaccharides. The test is classed as biochemical, Bacillus sphaericus. More on the design: Vmax: unit not given here. Conditions: for Relative value: Vmax/Km relative to β-cyclodextrin = 1.00. As to the method:
as §1

Test [3] addresses T1, cyclodextrinase. Briefly: Influence of metal ions on the activity of the present enzyme. The test is classed as biochemical, Bacillus sphaericus. Conditions: for Residual activity: ions added, final conc. 1 mM, none = 100. The method, then:
as §1

In test [4] the test system is cyclodextrinase. Conditions: Bacillus coagulans enzyme, prior literature; cited from earlier work.
Test [5] relates to cyclodextrinase. Conditions: Bacillus macerans enzyme, prior literature; cited from earlier work.
[6] abbreviates: substrate conc. 0.1%, β-cyclodextrin (2 mM) = 100.
Setting [7] is: substrate conc. 2 mM, β-cyclodextrin = 100.

Like-named read-outs stand apart in the source and are kept apart here.

One may read the Km as the concentration of substrate that gives half-maximal velocity.

Pullulan registered a Relative hydrolysis rate in test [1] (setting [6]) of 1.5%.

Turning to `OC[C@H]1O[C@@H]2O[C@H]3[C@H](O)[C@@H](O)[C@@H](O[C@H]4[C@H](O)[C@@H](O)[C@@H](O[C@H]5[C@H](O)[C@@H](O)[C@@H](O[C@H]6[C@H](O)[C@@H](O)[C@@H](O[C@H]7[C@H](O)[C@@H](O)[C@@H](O[C@H]8[C@H](O)[C@@H](O)[C@@H](O[C@H]9[C@H](O)[C@@H](O)[C@@H](O[C@H]1[C@H](O)[C@H]2O)O[C@@H]9CO)O[C@@H]8CO)O[C@@H]7CO)O[C@@H]6CO)O[C@@H]5CO)O[C@@H]4CO)O[C@@H]3CO` [γ-cyclodextrin], in test [2], the Vmax turned out to be 0.039 and the Relative value is listed as 0.09.

With `[Cu+2]` [Cu^2+], the Residual activity in test [3] is listed as 2.8%. With `[Fe+3]` [Fe^3+], the Residual activity in test [3] is listed as 41.6%; in test [3] (listed as Fe^2+), 4.6%. Compound Dextran showed a Relative hydrolysis rate in test [1] (setting [6]) of 11%. In test [1] (setting [7]), `OC[C@H]1O[C@H](O[C@H]2[C@H](O)[C@@H](O)[C@@H](O[C@H]3[C@H](O)[C@@H](O)[C@@H](O[C@H]4[C@H](O)[C@@H](O)[C@@H](O[C@H]5[C@H](O)[C@@H](O)C(O)O[C@@H]5CO)O[C@@H]4CO)O[C@@H]3CO)O[C@@H]2CO)[C@H](O)[C@@H](O)[C@@H]1O` (some centres unmarked) [Maltopentaose] yielded a Relative hydrolysis rate of 49%. Also, in test [2], the Vmax was found to be 0.073 and the Relative value worked out at 0.27. Regarding `[Mn+2]` [Mn^2+], the Residual activity in test [3] stood at 59.3%. Turning to `OC[C@H]1O[C@H](O[C@H]2[C@H](O)[C@@H](O)[C@@H](O[C@H]3[C@H](O)[C@@H](O)[C@@H](O[C@H]4[C@H](O)[C@@H](O)[C@@H](O[C@H]5[C@H](O)[C@@H](O)[C@@H](O[C@H]6[C@H](O)[C@@H](O)C(O)O[C@@H]6CO)O[C@@H]5CO)O[C@@H]4CO)O[C@@H]3CO)O[C@@H]2CO)[C@H](O)[C@@H](O)[C@@H]1O` (some centres unmarked) [Maltohexaose], the Relative hydrolysis rate in test [1] (setting [7]) turned out to be 43%. Besides, in test [2], the Vmax was 0.075 and the Relative value came out at 0.23. Moreover, the Km in test [4] is 1500 µM. The compound Amylopectin showed a Relative hydrolysis rate in test [1] (setting [6]) of 0.7%. With `OC[C@H]1O[C@@H]2O[C@H]3[C@H](O)[C@@H](O)[C@@H](O[C@H]4[C@H](O)[C@@H](O)[C@@H](O[C@H]5[C@H](O)[C@@H](O)[C@@H](O[C@H]6[C@H](O)[C@@H](O)[C@@H](O[C@H]7[C@H](O)[C@@H](O)[C@@H](O[C@H]1[C@H](O)[C@H]2O)O[C@@H]7CO)O[C@@H]6CO)O[C@@H]5CO)O[C@@H]4CO)O[C@@H]3CO` [α-cyclodextrin], the Relative hydrolysis rate in test [1] (setting [7]) is recorded as 44%. In addition, in test [2], the Vmax was found to be 0.074. Moreover, the Relative value in test [2] stood at 0.36. In addition, the values for the Km in test [5] and in test [4] were 2620 µM and 10000 µM, respectively.

On to `[Mg+2]` [Mg^2+], for which, in test [3], the “activation of the enzyme by metal ion” value is given as 10-30% and the Residual activity came out at 111.3%. In the case of `OC[C@H]1O[C@@H]2O[C@H]3[C@H](O)[C@@H](O)[C@@H](O[C@H]4[C@H](O)[C@@H](O)[C@@H](O[C@H]5[C@H](O)[C@@H](O)[C@@H](O[C@H]6[C@H](O)[C@@H](O)[C@@H](O[C@H]7[C@H](O)[C@@H](O)[C@@H](O[C@H]8[C@H](O)[C@@H](O)[C@@H](O[C@H]1[C@H](O)[C@H]2O)O[C@@H]8CO)O[C@@H]7CO)O[C@@H]6CO)O[C@@H]5CO)O[C@@H]4CO)O[C@@H]3CO` [β-cyclodextrin], the Relative hydrolysis rate in test [1] (setting [7]) was determined as 100%. In test [2], the Vmax was 0.110 and the Relative value was 1.00. In addition, in test [5], the Km is 2650 µM. For the same compound, the Km in test [4] is 2800 µM. In the case of `[Zn+2]` [Zn^2+], in test [3], the Residual activity amounted to 0.0%. Consider `[Ca+2]` [Ca^2+], for which, in test [3], the “activation of the enzyme by metal ion” value is 10-30% and the Residual activity worked out at 138.2%. In test [1] (setting [6]), Starch returned a Relative hydrolysis rate of 2.9%. The same measure, in the same setting: to Amylose [Amylose (G18)] belongs 44%.

Turning to `[Ni+2]` [Ni^2+], in test [3], the Residual activity is listed as 0.9%. Compound `OC[C@H]1O[C@H](O[C@H]2[C@H](O)[C@@H](O)[C@@H](O[C@H]3[C@H](O)[C@@H](O)[C@@H](O[C@H]4[C@H](O)[C@@H](O)[C@@H](O[C@H]5[C@H](O)[C@@H](O)[C@@H](O[C@H]6[C@H](O)[C@@H](O)[C@@H](O[C@H]7[C@H](O)[C@@H](O)C(O)O[C@@H]7CO)O[C@@H]6CO)O[C@@H]5CO)O[C@@H]4CO)O[C@@H]3CO)O[C@@H]2CO)[C@H](O)[C@@H](O)[C@@H]1O` (some centres unmarked) [Maltoheptaose] yielded a Relative hydrolysis rate in test [1] (setting [7]) of 66%. Besides, in test [2], the Vmax was determined as 0.060 and the Relative value amounted to 0.30.

Consider `[Hg+2]` [Hg^2+], for which the Residual activity in test [3] amounted to 0.0%.

As for `OC[C@H]1O[C@H](O[C@H]2[C@H](O)[C@@H](O)[C@@H](O[C@H]3[C@H](O)[C@@H](O)[C@@H](O[C@H]4[C@H](O)[C@@H](O)C(O)O[C@@H]4CO)O[C@@H]3CO)O[C@@H]2CO)[C@H](O)[C@@H](O)[C@@H]1O` (some centres unmarked) [Maltotetraose], in test [2], the Vmax is listed as 0.067 and the Relative value was determined as 0.15.

In the case of Amylose [Amylose (G99)], the Relative hydrolysis rate in test [1] (setting [6]) is 3.7%.

The values above are taken from patent publication US5238825A, “Preparation and use of a cyclodextrinase for preparing maltooligosaccharides” (Kikkoman Corporation, priority 1989, dated 1993).
